Broadly, the Ki is the equilibrium dissociation constant of an inhibitor or competing ligand from its target. High values mean lower affinity, low ones higher affinity.

The text below walks through data of patent US8748624B2, “Picolinamido-propanoic acid derivatives useful as glucagon receptor antagonists” (Janssen Pharmaceutica NV, priority 2011, dated 2014).

One test concerns the target human GCGR (Homo sapiens (Human), UniProt P47871). The test is described as follows: Cellular functional assay, cAMP readout (glucagon-stimulated cAMP in HEK293 cells expressing human GCGR). In kind it is cell-based. Particulars: hGluc-1 HEK cells, LANCE TR-FRET, IC50 converted to Ki, average if tested more than once. The essentials: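 HEK293 cells stably transfected with full-length human GCGR were exposed to compound for 30 min before a 5-min challenge with […] (final) glucagon. Readout was TR-FRET (LANCE) cAMP versus standard curve; IC50s fitted by non-linear regression and converted to Ki values.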
On the technique in general: TR-FRET usually uses a lanthanide donor and a delayed reading to cut background.

The target of test [1] is human glucagon receptor (GCGR) (Homo sapiens (Human), UniProt P47871). In words: Inhibition of 125I-glucagon binding to membranes from HEK293 cells expressing the human glucagon receptor. Particulars: membranes of hGluc-1 HEK cells, 125I-glucagon 0.3 nM, 2 hours room temperature; IC50 converted to Ki; average if tested more than once. The method, boiled down: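 Filtration binding assay on membranes from HEK293 cells stably expressing full-length human GCGR, 6 μg protein/well, with 0.3 nM ¹²⁵I-glucagon plus compound, 2 h at room temperature. Buffer: 50 mM HEPES pH 7.4, 5 mM MgCl2, 1 mM CaCl2, 0.2% BSA. IC50 by non-linear regression, converted to Ki.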
Sequence of human glucagon receptor (GCGR) (P47871 26-477): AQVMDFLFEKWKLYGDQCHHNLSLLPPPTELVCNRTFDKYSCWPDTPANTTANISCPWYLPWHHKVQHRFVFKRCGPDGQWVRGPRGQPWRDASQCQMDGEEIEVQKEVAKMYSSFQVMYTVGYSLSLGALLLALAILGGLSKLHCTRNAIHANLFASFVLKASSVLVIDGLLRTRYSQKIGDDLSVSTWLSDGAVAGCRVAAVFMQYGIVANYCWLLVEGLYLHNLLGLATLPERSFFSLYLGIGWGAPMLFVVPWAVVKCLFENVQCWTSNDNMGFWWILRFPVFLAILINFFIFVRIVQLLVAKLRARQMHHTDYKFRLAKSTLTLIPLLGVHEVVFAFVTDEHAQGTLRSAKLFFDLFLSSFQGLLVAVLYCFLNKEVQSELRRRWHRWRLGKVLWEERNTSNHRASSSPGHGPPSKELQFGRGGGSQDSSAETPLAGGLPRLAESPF

Sequence of human GCGR (P47871 26-477): as above

For the molecule `O=C(O)CCNC(=O)c1ccc(-c2cc(C(F)(F)F)ccc2CNc2ccc(-c3ccc(F)cc3Cl)c(Cl)c2)cn1` [Compound 33, 3-(5-(2-(((2,2′-dichloro-4′-fluoro-[1,1′-biphenyl]-4-yl)amino)methyl)-5-(trifluoromethyl)phenyl)picolinamido)propanoic acid], the results for the Ki (at human GCGR; in test [1]) were 0.0598 µM and 0.0213 µM, respectively.
On to `Cc1cc(NCc2cc(Cl)c(C(F)(F)F)cc2-c2ccc(C(=O)NCCC(=O)O)nc2)ccc1-c1ccc(Cl)cc1` [Compound 79, 3-(5-(4-chloro-2-(((4′-chloro-2-methyl-[1,1′-biphenyl]-4-yl)amino)methyl)-5-(trifluoromethyl)phenyl)picolinamido)propanoic acid], for which the Ki at human GCGR was determined as 0.0316 µM; in test [1], 0.024 µM.
The corresponding values for `CS(=O)(=O)c1ccc(CNc2ccc(-c3ccc(Cl)cc3)cc2)c(-c2ccc(C(=O)NCCC(=O)O)nc2)c1` [Compound 70, 3-(5-(2-(((4′-chloro-[1,1′-biphenyl]-4-yl)amino)methyl)-5-(methylsulfonyl)phenyl)picolinamido)propanoic acid] are greater than 10.4 µM and 0.0522 µM.
Consider `O=C(O)CCNC(=O)c1ccc(-c2cc(Cl)ccc2CNc2ccc(-c3ccc(F)cc3F)c(Cl)c2)cn1` [Compound 63, 3-(5-(5-chloro-2-(((2-chloro-2′,4′-difluoro-[1,1′-biphenyl]-4-yl)amino)methyl)phenyl)picolinamido)propanoic acid], for which the Ki on human GCGR turned out to be 0.188 µM; in test [1], 0.0226 µM.
On to `O=C(O)CCNC(=O)c1ccc(-c2cc(C(F)(F)F)ccc2CNc2ccc(-c3ccc(Cl)cc3Cl)c(Cl)c2)cn1` [Compound 27, 3-(5-(2-(((2,2′,4′-trichloro-[1,1′-biphenyl]-4-yl)amino)methyl)-5-(trifluoromethyl)phenyl)picolinamido)propanoic acid], for which the inhibition constant Ki at human GCGR came to 0.0173 µM; in test [1], 0.0215 µM.
The corresponding values for `O=C(O)CCNC(=O)c1ccc(-c2cc(F)c(F)cc2CNc2ccc(-c3cccc(C(F)(F)F)c3Cl)c(Cl)c2)cn1` [Compound 107, 3-(5-(2-(((2,2′-dichloro-3′-(trifluoromethyl)-[1,1′-biphenyl]-4-yl)amino)methyl)-4,5-difluorophenyl)picolinamido)propanoic acid] are 0.0548 µM and 0.0237 µM.
The corresponding values for `O=C(O)CCNC(=O)c1ccc(-c2ccccc2CNc2ccc(-c3ccccc3)cc2)cn1` [Compound 1, 3-(5-(2-(([1,1′-biphenyl]-4-ylamino)methyl)phenyl)picolinamido)propanoic acid] are greater than 10.4 µM and greater than 5.4 µM.
The corresponding values for `O=C(O)CCNC(=O)c1ccc(-c2cc(Cl)ccc2CNc2ccc(-c3ccc(Cl)cc3)c(F)c2)cn1` [Compound 91, 3-(5-(5-chloro-2-(((4′-chloro-2-fluoro-[1,1′-biphenyl]-4-yl)amino)methyl)phenyl)picolinamido)propanoic acid] are 0.295 µM and 0.0334 µM.
Regarding `O=C(O)CCNC(=O)c1ccc(-c2cc(F)ccc2CNc2ccc(-c3ccc(C(F)(F)F)cc3)c(F)c2)cn1` [Compound 56, 3-(5-(5-fluoro-2-(((2-fluoro-4′-(trifluoromethyl)-[1,1′-biphenyl]-4-yl)amino)methyl)phenyl)picolinamido)propanoic acid], the Ki turned out to be 0.309 µM on human GCGR and 0.0988 µM in test [1].
The corresponding values for `O=C(O)CCNC(=O)c1ccc(-c2cc(C(F)(F)F)ccc2CNc2ccc(-c3ccc(Cl)c(C(F)(F)F)c3)c(Cl)c2)cn1` [Compound 32, 3-(5-(2-(((2,4′-dichloro-3′-(trifluoromethyl)-[1,1′-biphenyl]-4-yl)amino)methyl)-5-(trifluoromethyl)phenyl)picolinamido)propanoic acid] are 0.0725 µM and 0.0251 µM.
For the molecule `O=C(O)CCNC(=O)c1ccc(-c2cc(Cl)ccc2CNc2ccc(-c3ccc(F)cc3C(F)(F)F)cc2)cn1` [Compound 149, 3-(5-(5-chloro-2-(((4′-fluoro-2′-(trifluoromethyl)-[1,1′-biphenyl]-4-yl)amino)methyl)phenyl)picolinamido)propanoic acid], the figures for the Ki (on human GCGR; in test [1]) were 0.43 µM and 0.04 µM, respectively.
With `O=C(O)CCNC(=O)c1ccc(-c2cc(Cl)ccc2CNc2ccc(-c3ccccc3Cl)cc2)cn1` [Compound 135, 3-(5-(5-chloro-2-(((2′-chloro-[1,1′-biphenyl]-4-yl)amino)methyl)phenyl)picolinamido)propanoic acid], the Ki came out at 3 µM on human GCGR and 0.0639 µM in test [1].
The corresponding values for `Cc1cc(Cl)ccc1-c1ccc(NC(=O)c2ccc(Cl)cc2-c2ccc(C(=O)NCCC(=O)O)nc2)cc1` [Compound 153, 3-(5-(5-chloro-2-((4′-chloro-2′-methyl-[1,1′-biphenyl]-4-yl)carbamoyl)phenyl)picolinamido)propanoic acid] are 0.028 µM and 0.0329 µM.
Take `O=C(O)CCNC(=O)c1ccc(-c2cc(Cl)ccc2CNc2ccc(-c3ccc(Cl)cc3Cl)c(Cl)c2)cn1` [Compound 51, 3-(5-(5-chloro-2-(((2,2′,4′-trichloro-[1,1′-biphenyl]-4-yl)amino)methyl)phenyl)picolinamido)propanoic acid]: the Ki amounted to 0.0341 µM on human GCGR and 0.0168 µM in test [1].
The corresponding values for `O=C(O)CCNC(=O)c1ccc(-c2cc(Cl)ccc2CNc2ccc(-c3ccc(F)c(Cl)c3)c(Cl)c2)cn1` [Compound 171, 3-(5-(5-chloro-2-(((2,3′-dichloro-4′-fluoro-[1,1′-biphenyl]-4-yl)amino)methyl)phenyl)picolinamido)propanoic acid] are 0.117 µM and 0.036 µM.
With `O=C(O)CCNC(=O)c1ccc(-c2cc(Cl)ccc2C(=O)Nc2ccc(-c3ccc(F)cc3F)cc2)cn1` [Compound 36, 3-(5-(5-chloro-2-((2′,4′-difluoro-[1,1′-biphenyl]-4-yl)carbamoyl)phenyl)picolinamido)propanoic acid], the figures for the Ki (at human GCGR; in test [1]) were 0.0951 µM and 0.0673 µM, respectively.
For the molecule `CC(Nc1ccc(-c2ccc(F)cc2)cc1)c1ccc(Cl)cc1-c1ccc(C(=O)NCCC(=O)O)nc1` (stereo not shown) [Compound 155, 3-(5-(5-chloro-2-(1-((4′-fluoro-[1,1′-biphenyl]-4-yl)amino)ethyl)phenyl)picolinamido)propanoic acid], the Ki on human GCGR amounted to 2.2 µM; in test [1] it was 0.235 µM.
Consider `COc1cc(NCc2ccc(Cl)cc2-c2ccc(C(=O)NCCC(=O)O)nc2)ccc1-c1ccc(C(F)(F)F)cc1` [Compound 54, 3-(5-(5-chloro-2-(((2-methoxy-4′-(trifluoromethyl)-[1,1′-biphenyl]-4-yl)amino)methyl)phenyl)picolinamido)propanoic acid], for which the Ki came to 0.22 µM on human GCGR and 0.0485 µM in test [1].
The corresponding values for `CC(C)(C)c1ccc(-c2ccc(NCc3ccccc3-c3ccc(C(=O)NCCC(=O)O)nc3)cc2)cc1` [Compound 3, 3-(5-(2-(((4′-(tert-butyl)-[1,1′-biphenyl]-4-yl)amino)methyl)phenyl)picolinamido)propanoic acid] are greater than 10.4 µM and greater than 5.4 µM.
For `O=C(O)CCNC(=O)c1ccc(-c2cc(C(F)(F)F)cc(C(F)(F)F)c2CNc2ccc(-c3ccc(Cl)cc3)cc2)cn1` [Compound 71, 3-(5-(2-(((4′-chloro-[1,1′-biphenyl]-4-yl)amino)methyl)-3,5-bis(trifluoromethyl)phenyl)picolinamido)propanoic acid], the Ki on human GCGR stood at 0.0173 µM; in test [1], 0.0313 µM.
The corresponding values for `O=C(O)CCNC(=O)c1ccc(-c2cc(F)c(F)cc2CNc2ccc(-c3ccc(Cl)cc3)cc2)cn1` [Compound 117, 3-(5-(2-(((4′-chloro-[1,1′-biphenyl]-4-yl)amino)methyl)-4,5-difluorophenyl)picolinamido)propanoic acid] are 0.16 µM and 0.0435 µM.
Take `Cc1cc(-c2ccc(NCc3cc(F)c(F)cc3-c3ccc(C(=O)NCCC(=O)O)nc3)cc2C#N)ccc1F` [Compound 115, 3-(5-(2-(((2-cyano-4′-fluoro-3′-methyl-[1,1′-biphenyl]-4-yl)amino)methyl)-4,5-difluorophenyl)picolinamido)propanoic acid]: the Ki at human GCGR came out at 0.5 µM; in test [1], 0.0957 µM.
On to `O=C(O)CCNC(=O)c1ccc(-c2ccc(Cl)cc2CNc2ccc(-c3ccc(Cl)cc3)cc2)cn1` [Compound 4, 3-(5-(4-chloro-2-(((4′-chloro-[1,1′-biphenyl]-4-yl)amino)methyl)phenyl)picolinamido)propanoic acid], for which the Ki on human GCGR came to 0.21 µM; in test [1], 0.0649 µM.
The corresponding values for `O=C(O)CCNC(=O)c1ccc(-c2cc(C(F)(F)F)ccc2CNc2ccc(-c3ccc(C(F)(F)F)cc3)cc2)cn1` [Compound 29, 3-(5-(5-(trifluoromethyl)-2-(((4′-(trifluoromethyl)-[1,1′-biphenyl]-4-yl)amino)methyl)phenyl)picolinamido)propanoic acid] are 0.062 µM and 0.0304 µM.
The corresponding values for `C=C(C)c1ccc(CNc2ccc(-c3ccc(F)cc3)cc2)c(-c2ccc(C(=O)NCCC(=O)O)nc2)c1` [Compound 157, 3-(5-(2-(((4′-fluoro-[1,1′-biphenyl]-4-yl)amino)methyl)-5-(prop-1-en-2-yl)phenyl)picolinamido)propanoic acid] are 0.113 µM and 0.0335 µM.
For the molecule `O=C(O)CCNC(=O)c1ccc(-c2ccccc2CNc2ccc(-c3ccc(Cl)c(Cl)c3)cc2)cn1` [Compound 8, 3-(5-(2-(((3′,4′-dichloro-[1,1′-biphenyl]-4-yl)amino)methyl)phenyl)picolinamido)propanoic acid], the Ki worked out at 0.565 µM at human GCGR and 0.0943 µM in test [1].
